In one test the target is T1, human CRF2a receptor (Homo sapiens, UniProt Q13324).
T1 construct: expressed in transfected cells; host or cells: TeloHEAC cells
T1 sequence (Q13324 1-411): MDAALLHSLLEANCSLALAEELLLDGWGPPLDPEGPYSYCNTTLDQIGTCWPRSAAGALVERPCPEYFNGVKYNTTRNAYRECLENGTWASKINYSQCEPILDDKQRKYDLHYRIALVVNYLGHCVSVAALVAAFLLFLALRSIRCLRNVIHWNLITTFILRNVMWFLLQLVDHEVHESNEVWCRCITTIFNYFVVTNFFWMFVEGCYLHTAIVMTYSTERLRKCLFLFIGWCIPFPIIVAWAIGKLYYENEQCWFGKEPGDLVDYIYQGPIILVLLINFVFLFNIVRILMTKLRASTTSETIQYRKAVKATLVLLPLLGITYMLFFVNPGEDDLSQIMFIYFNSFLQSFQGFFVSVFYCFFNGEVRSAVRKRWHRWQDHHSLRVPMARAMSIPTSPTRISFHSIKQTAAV
Description: Activity at human CRF2a receptor, cAMP functional assay in TeloHEAC cells. As to conditions: TeloHEAC cells stably expressing human CRF2a receptor, relative to urocortin 2 (100 nM = 100%). It is filed as cell-based. In a few lines: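 TeloHEAC cells stably expressing human CRF2a (10000 cells/well) were treated with 16-point 1:2 compound dilutions in HBSS/20 mM HEPES with IBMX for 30 min at 37° C. cAMP was read by HTRF (665/620 nm ratio). EC50 was the concentration giving 50% activation, with 100 nM urocortin 2 set as 100%.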

In another test the target is T2, CFR1R receptor (Homo sapiens, UniProt P34998).
T2 construct: host or cells: CHO-K1 (clone 2)
T2 sequence (P34998 24-415): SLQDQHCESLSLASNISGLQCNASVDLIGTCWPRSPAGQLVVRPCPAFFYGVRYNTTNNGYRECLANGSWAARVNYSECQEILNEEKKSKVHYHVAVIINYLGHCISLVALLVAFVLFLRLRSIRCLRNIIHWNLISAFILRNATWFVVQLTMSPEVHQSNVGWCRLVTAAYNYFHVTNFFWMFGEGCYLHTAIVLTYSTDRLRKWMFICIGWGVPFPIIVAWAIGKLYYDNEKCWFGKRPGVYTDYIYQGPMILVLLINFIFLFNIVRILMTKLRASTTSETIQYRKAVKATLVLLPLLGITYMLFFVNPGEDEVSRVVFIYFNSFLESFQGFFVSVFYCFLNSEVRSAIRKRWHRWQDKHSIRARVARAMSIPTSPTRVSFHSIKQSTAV
Description: Activity at anti-target CFR1R receptor, cAMP assay in CRF1R-overexpression CHO-K1 cells. The test is classed as cell-based. As to conditions: 100% = Sauvagine at 100 nM; for EC50: cAMP. In a few lines: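 Clone 2 cells were cultured in F12 (Hams)/10% FBS/400 μg/ml G418 at 37° C./5% CO2, frozen in medium with 10% DMSO, and thawed vials used. The protocol followed the TeloHAEC procedure, with 4000 cells/well final and Sauvagine at 100 nM defining 100% activation.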

*1 amine or outer side, *2 acyl side, *3 side chain or, on linkers, in order; H or OH if unused. Where a SMILES comes first, the peptide text is derived from it. Side-chain parts run from the residue outwards. [ ]: non-standard residue; d: D form. The star is where a group is joined. C16 diacid = O=C(O)CCCCCCCCCCCCCCC(=O)*; γGlu = O=C(O)[C@H](CCC(=O)[*:2])N[*:1]; NMeV = CN[C@H](C(=O)O)C(C)C; Api = NC1(C(=O)O)CCNCC1; Aib = CC(C)(N)C(=O)O

As to `CC[C@H](C)[C@H](NC(=O)[C@H](CCC(N)=O)NC(=O)C1(NC(=O)[C@H](CC(N)=O)NC(=O)[C@@H](NC(=O)[C@H](CCC(=O)O)NC(=O)[C@H](C)NC(=O)[C@H](CCC(N)=O)NC(=O)[C@H](CCC(=O)O)NC(=O)[C@H](CCCNC(=N)N)NC(=O)[C@H](CCC(N)=O)NC(=O)[C@H](CCCCN)NC(=O)[C@H](CCCCN)NC(=O)[C@H](CCC(N)=O)NC(=O)[C@H](CCCCN)NC(=O)[C@H](CCC(=O)O)NC(=O)[C@H](CCC(N)=O)NC(=O)[C@H](CCC(=O)O)NC(=O)[C@H](CC(C)C)NC(=O)[C@H](CC(C)C)NC(=O)[C@@H](NC(=O)[C@H](CCCCN)NC(=O)[C@H](CCCCNC(=O)CC[C@H](NC(=O)CCCCCCCCCCCCCCC(=O)O)C(=O)O)NC(=O)[C@H](CC(C)C)NC(=O)[C@H](CCCCN)NC(=O)[C@@H](NC(=O)[C@@H]2CCCN2C(=O)[C@H](NC(=O)[C@H](CC(=O)O)NC(=O)[C@H](CC(C)C)NC(=O)[C@H](CO)NC(=O)[C@H](CC(C)C)NC(=O)[C@@H](NC)C(C)C)C(C)C)[C@@H](C)CC)[C@@H](C)CC)[C@@H](C)O)CCNCC1)C(=O)N[C@@H](CC(C)C)C(=O)N[C@@H](C)C(=O)N[C@@H](CCC(N)=O)C(=O)N[C@H](C(N)=O)C(C)C` [compound 160] (H-[NMeV]LSLD[dV]PIKLK([γGlu-C16 diacid])KILLEQEKQKKQREQAETN[Api]QILAQV-NH2), the results for the concentration giving a half-maximal response (EC50) at human CRF2a receptor and on CFR1R receptor were 2.08 nM and > 250 nM, respectively. Moreover, on CFR1R receptor, the “Emax (% I)” value is listed as 2 % I.
The corresponding values for `CC[C@H](C)[C@H](NC(C)=O)C(=O)N[C@H](C(=O)N[C@@H](CC(C)C)C(=O)N[C@@H](CO)C(=O)N[C@@H](CC(C)C)C(=O)N[C@@H](CC(=O)O)C(=O)N[C@@H](C(=O)N1CCC[C@H]1C(=O)N[C@H](C(=O)N[C@@H](CCCCN)C(=O)N[C@@H](CC(C)C)C(=O)N[C@@H](CCCCNC(=O)CC[C@H](NC(=O)CCCCCCCCCCCCCCC(=O)O)C(=O)O)C(=O)N[C@@H](CCCCN)C(=O)N[C@H](C(=O)N[C@@H](CC(C)C)C(=O)N[C@@H](CC(C)C)C(=O)N[C@@H](CCC(=O)O)C(=O)N[C@@H](CCC(N)=O)C(=O)N[C@@H](CCC(=O)O)C(=O)N[C@@H](CCCCN)C(=O)N[C@@H](CCC(N)=O)C(=O)N[C@@H](CCCCN)C(=O)NC(C)(C)C(=O)N[C@@H](CCC(N)=O)C(=O)N[C@@H](CCCNC(=N)N)C(=O)N[C@@H](CCC(=O)O)C(=O)N[C@@H](CCC(N)=O)C(=O)N[C@@H](C)C(=O)N[C@@H](CCC(=O)O)C(=O)N[C@H](C(=O)N[C@@H](CC(N)=O)C(=O)NC(C)(C)C(=O)N[C@@H](CCC(N)=O)C(=O)N[C@H](C(=O)N[C@@H](CC(C)C)C(=O)N[C@@H](C)C(=O)N[C@@H](CCC(N)=O)C(=O)N[C@H](C(N)=O)C(C)C)[C@@H](C)CC)[C@@H](C)O)[C@@H](C)CC)[C@@H](C)CC)C(C)C)C(C)C` [compound 162] (Ac-IVLSLD[dV]PIKLK([γGlu-C16 diacid])KILLEQEKQK[Aib]QREQAETN[Aib]QILAQV-NH2) are 0.49 nM, > 250 nM and 0 % I.

These data come from patent US20260001928A1 (CORTERIA PHARMACEUTICALS, priority 2022, published 2026).
